Laboratory results as given in patent US10166229B2, “Compounds and methods for the treatment of cancer” (The Board of Trustees of the University of Illinois, priority 2005, dated 2019).
pEC50: −log10 of the molar value.

Legend:
[1] = biological target: procaspase-3 mutant DAD (Homo sapiens, UniProt P42574, D180A); experiment: Activation of safety catch mutant procaspase-3 (DAD); type: biochemical; conditions: Asp-Ala-Asp mutant
Excerpt: Safety catch mutations. The DDD procaspase-3 safety catch (SEQ ID NO:1; SEQ ID NO:2; SEQ ID NO:9) was mutated to ADD (SEQ ID NO:3, SEQ ID NO:4, SEQ ID NO:10), DAD (SEQ ID NO:5, SEQ ID NO:6, SEQ ID NO:11) and DDA (SEQ ID NO:7, SEQ ID NO:8, SEQ ID NO:12) using the quickchange strategy with the following primers, gacagacagtggtgttgCGgatgacatggcgtgtcataaaatacc (SEQ ID NO:13), gacagacagtggtgttgatgCtgacatggcgtgtcataaaatacc (SEQ ID NO:14) and gacagacagtggtgttgatgatgCcatggcgtgtcataaaatacc (SEQ ID NO:15) respectively. See also FIG. 9 and FIG. 10. Mutated bases are underlined and capitalized. All mutant plasmids were sequenced to ensure proper sequence throughout the gene. All mutant plasm ids were expressed exactly as wild-type procaspase-3 as described above. […] The plate was then incubated for 12 hours at 37° C. 10 μL of a 2 mM solution of Ac-DEVD-pNA (SEQ ID NO: 28) in caspase assay buffer was then added to each well. The plate was read every 2 minutes at 405 nm for 2 hours in a Spectra Max Plus 384 well plate reader. The slope of the linear portion for each well was determined and the fold increase in activity for each mutant was calculated.

[2] = test system: HL-60 cells; experiment: Annexin V staining (phosphatidylserine exposure); type: cell-based, human
Protocol: Cells were harvested by centrifugation and washed twice in PBS. The cells were then washed in AnnexinV binding buffer (10 mM HEPES, 140 mM NaCl, 2.5 mM CaCl2, pH 7.4) and resuspended in 100 μL of Annexin V binding buffer. 5 μL of annexin V, Alexa Fluor 488 conjugate was added and the tubes were incubated at room temperature for 15 minutes protected from light. 400 μL of Annexin V binding buffer was then added, followed by the addition of 1 μL of a 1 mg/mL solution of propidium iodide. The fluorescent intensity of each cell was determined by flow cytometry at 525 nm (green channel) and 675 nm (red channel). At least 50,000 cells were analyzed in each experiment.

procaspase-3 mutant DAD, sequence (P42574 29-175 limits assumed): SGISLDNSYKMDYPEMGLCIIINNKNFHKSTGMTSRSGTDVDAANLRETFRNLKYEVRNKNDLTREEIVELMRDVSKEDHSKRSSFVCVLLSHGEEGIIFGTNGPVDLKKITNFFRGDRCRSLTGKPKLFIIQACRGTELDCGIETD
procaspase-3 mutant DAD, sequence (P42574 176-277 D180A limits assumed): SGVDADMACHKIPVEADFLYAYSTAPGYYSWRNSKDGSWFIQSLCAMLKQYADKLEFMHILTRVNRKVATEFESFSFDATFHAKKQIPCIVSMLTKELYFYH

How did the pEC50 [1] turn out when C=CCc1cccc(/C=N/NC(=O)CN2CCN(Cc3ccccc3)CC2)c1O [PAC-1] was run?
Its pEC50 is 5.56.

And the “effectiveness in Annexin-V assay” value ([2]; 5 μM)?
Its value is “effective”.

What about the “phosphatidylserine exposure on the cell membrane” value ([2]; HL-60, 20 h, 100 μM) of the same compound?
Its value is “considerable phosphatidylserine exposure”.
